Data as given in patent US20250109120A1, “INDOLINE DERIVATIVES FOR TREATMENT AND/OR PREVENTION OF TUMOR OR CELL PROLIFERATIVE AND FIBROSIS DISEASES” (NATIONAL TAIWAN UNIVERSITY, priority 2023, published 2025).

What was measured:
[1] = test system: CDH1 reporter in DU145 cells; assay: 7TFP CDH1 reporter luciferase assay; assay type: cell-based, human; conditions: TGF-β1 10 ng/mL, 24 h
DU145 cells [2] = assay: MTT cell cytotoxicity assay; assay type: cell-based, human
Experimental: (§1) FIGS. 2A-2D show the evaluation of CDK8 inhibition by compound k. […] Cell viability was measured by MTT assay, and the 50% inhibitory concentration (IC50) values were calculated by a sigmoidal dose-response equation. […] Whole-cell lysates were subjected to western blotting with the indicated antibodies. The results are shown as the mean t SEM from at least three independent experiments (*p<0.05, **p<0.01, and ***p<0.001 vs. control group; #p<0.05 vs. relevant control).
(§2) Cell cytotoxicity was evaluated using the MTT assay. […] Then, 0.5 mg/mL MTT was added, and the plates were incubated for an additional 2 h at 37° C. The cells were then pelleted and lysed in 100 μL of dimethyl sulfoxide, and the absorbance at 550 nm was measured with a microplate reader.

PC-3 cells [3] = assay: MTT cell cytotoxicity assay; assay type: cell-based, human
Experimental: as §1, §2

PC-3 cells [4] = assay: β-catenin target protein expression, western blot; assay type: cell-based, human; conditions: 24 h
Experimental: Inhibitory phosphorylation of GSK3β was evaluated through western blotting. […] Whole-cell lysates were subjected to western blotting with the indicated antibodies. FIGS. 11J-11K show the comparison of basal activities of the Akt/GSK3β axis between PC-3 and DU145 cells. […] The results are shown as the mean±SEM from at least three independent experiments (*p<0.05, **p<0.01, ***p<0.001 vs. control group; #p<0.05, ##p<0.01, and ###p<0.001 vs. relevant control).
(§3) The cells were incubated in lysis buffer for 10 min at 4° C., scraped off, incubated on ice for an additional 10 min and then centrifuged at 17,000 g for 30 min at 4° C. Protein samples were electrophoresed on SDS-PAGE gels, transferred to PVDF membranes and blocked with 5% fat-free milk in PBS for 30 min at room temperature. Immunoblotting was performed overnight with primary antibodies in PBS at 4° C., followed by incubation with HRP-conjugated secondary antibodies for 1 h at room temperature. Bound antibodies will be measured using an ECL reagent and exposed to a photographic film. In the immunoprecipitation assay, cell lysates were immunoprecipitated with 1 μg of antibody and A/G agarose beads overnight at 4° C. After washing the precipitated beads three times with 1 mL ice-cold cell lysis buffer, bound immune complexes were separated by 10% SDS-PAGE and analyzed with immunoblotting.

A549 cells = assay: MTT cell viability assay; assay type: cell-based, human; conditions: 12, 24 and 48 h, up to 10 μM
Experimental: FIGS. 4A-4B show the inhibition of epithelial-to-mesenchymal transition protein expressions by CDK8 inhibitors in human alveolar epithelial cells. […] Cell lysates were subjected to a Western blot analysis using the indicated antibodies. Results are shown as the mean t SEM from three independent experiments. *p<0.05, and ***p<0.001 compared to the control group; #p<0.05, ##p<0.01, and ###p<0.001 compared to the TGF-β1-treated group. […] Cell viabilities were determined by an MTT assay. Results are shown as the mean t SEM of three independent experiments.
Cell cytotoxicity was measured by a colorimetric MTT assay. […] After various treatments, 1 mg/mL of MTT was added, and the plates were incubated at 37° C. for an additional 2 h. Then cells were pelleted and lysed with 10% sodium dodecylsulfate (SDS) with 0.01 M HCl, and the absorbance at 570 nm was measured on a microplate reader.

other CDKs and kinases = assay: Kinase selectivity panel of 54 kinases (SelectScreen); assay type: biochemical; conditions: 150 nM, 54-kinase panel
Experimental: (§4) Compounds were tested for kinase inhibitory activity using the Thermo Fisher SelectScreen service (www.thermofisher.com/selectscreen). For CDK8, the LanthaScreen Eu Binding Assay was used. Briefly, the assay employed utilizes a fluorescent tracer to a given kinase. This is used to detect the addition of an anti-tag antibody. When the tracer and antibody bind to the targeted kinase, the Forster resonance energy transfer is measured. When a kinase inhibitor is added to the assay, the tracer/kinase binding will be disrupted, producing low FRET detection and indicating kinase inhibitory activity. Evaluation of kinase activity of additional kinase targets utilized the LanthaScreen binding assay or the Z′-Lyte activity assay provided by Thermo Fisher SelectScreen service. The IC50 values were determined using sequential doses, and the inhibition curves were provided by Thermo Fisher Scientific.
(§5) Compound k was evaluated for kinase selectivity. […] The cytotoxicity of compound k was then assessed in DU145 and PC-3 cells, human prostate cancer cell lines isolated from patients with brain and bone metastasis, respectively. […] To further examine whether compound k still inhibited CDK8/19 inhibition in cells, we assessed whether compound treatment in DU145/PC-3 androgen-independent prostate cancer cells could inhibit STAT1-S727 phosphorylation. […]

CDK19 = CDK19 (Homo sapiens (Human), UniProt Q9BWU1); assay: as above; assay type: biochemical; conditions: 150 nM, 54-kinase panel
Sequence of CDK19 (Q9BWU1 whole entry): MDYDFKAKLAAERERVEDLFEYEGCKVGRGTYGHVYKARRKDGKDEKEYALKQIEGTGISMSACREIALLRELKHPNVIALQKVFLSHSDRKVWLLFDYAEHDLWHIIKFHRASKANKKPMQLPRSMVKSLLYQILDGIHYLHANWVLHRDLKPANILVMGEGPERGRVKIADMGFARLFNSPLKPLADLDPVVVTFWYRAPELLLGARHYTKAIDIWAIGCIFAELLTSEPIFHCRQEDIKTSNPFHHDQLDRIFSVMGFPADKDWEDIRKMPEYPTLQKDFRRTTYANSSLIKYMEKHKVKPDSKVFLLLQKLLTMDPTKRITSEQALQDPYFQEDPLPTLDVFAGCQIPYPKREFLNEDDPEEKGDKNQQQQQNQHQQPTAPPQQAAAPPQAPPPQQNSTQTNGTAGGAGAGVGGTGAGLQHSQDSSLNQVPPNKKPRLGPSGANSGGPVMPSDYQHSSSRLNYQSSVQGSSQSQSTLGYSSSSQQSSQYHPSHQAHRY
Experimental: as §4, §5

CDK8 = CDK8 (Homo sapiens (Human), UniProt P49336); assay: LanthaScreen Eu Binding Assay, Thermo Fisher SelectScreen kinase service
Sequence of CDK8 (P49336 whole entry, looked up): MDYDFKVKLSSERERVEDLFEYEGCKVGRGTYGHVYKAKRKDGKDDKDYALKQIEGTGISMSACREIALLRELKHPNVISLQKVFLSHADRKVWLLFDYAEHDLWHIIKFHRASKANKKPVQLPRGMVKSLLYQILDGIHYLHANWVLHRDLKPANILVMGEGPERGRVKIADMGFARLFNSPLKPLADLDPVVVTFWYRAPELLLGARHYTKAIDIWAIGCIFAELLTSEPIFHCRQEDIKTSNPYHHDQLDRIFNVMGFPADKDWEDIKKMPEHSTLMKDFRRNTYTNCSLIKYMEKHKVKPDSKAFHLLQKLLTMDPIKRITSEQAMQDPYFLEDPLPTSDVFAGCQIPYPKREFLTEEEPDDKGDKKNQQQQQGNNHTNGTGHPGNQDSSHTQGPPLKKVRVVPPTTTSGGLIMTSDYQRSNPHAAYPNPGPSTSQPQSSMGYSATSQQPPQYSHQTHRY
Sequence of CDK8 (P24863 whole entry partner, looked up): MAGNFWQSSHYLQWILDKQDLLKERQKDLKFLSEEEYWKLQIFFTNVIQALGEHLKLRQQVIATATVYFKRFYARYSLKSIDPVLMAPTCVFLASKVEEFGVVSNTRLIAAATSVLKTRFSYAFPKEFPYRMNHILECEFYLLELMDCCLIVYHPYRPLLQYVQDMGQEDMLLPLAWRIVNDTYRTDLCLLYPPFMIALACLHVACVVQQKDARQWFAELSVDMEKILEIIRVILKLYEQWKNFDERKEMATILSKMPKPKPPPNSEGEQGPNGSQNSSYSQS
Experimental: as §4
The fragment-based drug design strategy in this study led to optimized CDK8 inhibitors with promising results. CDK8-inhibitory activities of the compounds (a-n) designed by this fragment-based drug design strategy were tested using the SelectScreen kinase service of ThermoFisher Scientific. The inhibitory effects of the 14 compounds and the referenced compound were tested at a concentration of 10 μM.

DU145 cells [5] = assay: TGF-β/Smad/RNA polymerase II signaling, western blot, fractionation, immunoprecipitation; assay type: cell-based, human; conditions: 10 μM
Experimental: Whole-cell lysates were subjected to western blotting with the indicated antibodies. […] The proteins in the cytosol and nucleus were detected by western blotting analysis, and the proteins expression in the nucleus were quantified. […] The results are shown as the mean±SEM from at least three independent experiments (*p<0.05, **p<0.01, and ***p<0.001 vs. control group; #p<0.05, ##p<0.01, and ###p<0.001 vs. TGF-β1 treatment group; § p<0.05, §§ p<0.01 vs. indicated group).
as §3

Q: With `CNC(=O)c1cc(Oc2ccc(NS(=O)(=O)c3ccc4c(c3)C(=C(C)C)C(=O)N4)c(F)c2)ccn1` [Compound k, 4-(3-Fluoro-4-((2-oxo-3-(propan-2-ylidene)indoline)-5-sulfonamido)phenoxy)-N-methylpicolinamide] as the molecule, how does the “CDH1-driven luciferase expression reduced by TGF-β1” value [1] read?
A: reversed this effect to the control level

Q: What about the IC50 (DU145 cells [2]; DU145, 24 h) of the same molecule?
A: > 30 µM

Q: And the IC50 (DU145 cells [2]; DU145, 72 h)?
A: > 30 µM

Q: And the IC50 (PC-3 cells [3]; PC-3, 24 h)?
A: > 30 µM

Q: What about the IC50 (PC-3 cells [3]; PC-3, 72 h) of the same molecule?
A: > 30 µM

Q: And the Snail expression (PC-3 cells [4])?
A: markedly inhibited

Q: What about the cell viability (A549 cells) of the same molecule?
A: did not significantly change

Q: What about the “effect on other CDKs and kinases” value (other CDKs and kinases) of the same molecule?
A: no significant effect

Q: And the CDK19 inhibition percentage (CDK19)?
A: 40%

Q: And the CDK8 inhibition percentage (CDK8; 150 nM, 54-kinase panel)?
A: 64%

Q: And the “CDK8 Inhibition percentage at 10 μM” value (CDK8; 10 μM)?
A: 102%

Q: And the IC50 (CDK8; read-out: Inhibition of CDK8 IC50)?
A: 0.129 µM

Q: What about the “higher inhibitory potency compared to compound j” value (CDK8; vs compound j) of the same molecule?
A: ~1.5 fold

Q: And the “increase in CDK8 inhibitory activity compared to E966-0530” value (CDK8; vs original compound E966-0530)?
A: 13 fold

Q: And the “binding of CDK8 to RNA polymerase II (Ser2/5), Smad3 and Pin1 (immunoprecipitation)” value (DU145 cells [5]; TGF-β1 10 ng/mL)?
A: inhibited

Q: What about the “phosphorylation of Smad3 and RNA polymerase II in nuclear fraction” value (DU145 cells [5]; TGF-β1 10 ng/mL 1 h) of the same molecule?
A: markedly suppressed

Q: And the “expression of mesenchymal markers (N-cadherin, Snail)” value (DU145 cells [5]; TGF-β1 10 ng/mL 24 h)?
A: significantly downregulated
